Measured values as given in patent US20110263454A1, “Methods of Identifying Functional Characteristics of Promoters, Transcription Modifying Proteins and Transcription Modulating Agents” (Salk Institute for Biological Studies, priority 2008, published 2011).

B1: LXRb: Liver X Receptor β (NR1H2), cDNA driver (protein, UniProt P55055 1-460, looked up)
Oxysterols receptor LXR-beta: MSSPTTSSLDTPLPGNGPPQPGAPSSSPTVKEEGPEPWPGGPDPDVPGTDEASSACSTDWVIPDPEEEPERKRKKGPAPKMLGHELCRVCGDKASGFHYNVLSCEGCKGFFRRSVVRGGARRYACRGGGTCQMDAFMRRKCQQCRLRKCKEAGMREQCVLSEEQIRKKKIRKQQQESQSQSQSPVGPQGSSSSASGPGASPGGSEAGSQGSGEGEGVQLTAAQELMIQQLVAAQLQCNKRSFSDQPKVTPWPLGADPQSRDARQQRFAHFTELAIISVQEIVDFAKQVPGFLQLGREDQIALLKASTIEIMLLETARRYNHETECITFLKDFTYSKDDFHRAGLQVEFINPIFEFSRAMRRLGLDDAEYALLIAINIFSADRPNVQEPGRVEALQQPYVEALLSYTRIKRPQDQLRFPRMLMKLVSLRTLSSVHSEQVFALRLQDKKLPPLLSEIWDVHE

Experiments:
Bmal1 promoter = assay: NHR-promoter luciferase screen, Bmal1 promoter; format: cell-based, mouse; conditions: for Luc. act., normalized to lacZ / Normalized Luc. act., normalized to control: Bmal1 promoter, HR component without or with ligand; for mBmal1 promoter reporter activity: transcription factor +/- ligand, control = 1.00
Procedure: (§1) The use, feasibility, and reproducibility of the functional NHR-promoter screen in a 48-well format have been tested validated. Briefly, there were co-expressed 50 ng of each NHR/NHR homodimer or NHR/RXR heterodimer with 100 ng promoter/luciferase construct and 50 ng of LacZ (as a control for transfection efficiency) in CV-1 cells using Fugene HD (Roche) as a transfection reagent (alternatively or additionally, a CMV-YFP construct can be used as a transfection control). Each of the nuclear hormone receptors that were used in these experiments was cloned into a pcDNA3.1 vector and comprised a C-terminally linked V5H6 tag. Twenty-four hours after transfection, appropriate ligands were added, where applicable, (see Table 5 for various ligands and concentrations and after 48 hrs, samples were assayed for luciferase and LacZ activity. To measure for luciferase activity 15 ul of sample was added to 30 ul of luciferase buffer (20 mM tricine, 1.07 mM MgCarbonate, 2.67 mM MgSulfate, 0.1 mM Naz-EDTA, 5 mM DTT, 5 mM ATP, 0.15 mg/ml CoA, 0.5 mM Luciferin), mixed briefly, and run in a Perkin Elmer Victor 5 luminometer. Thus, the functional NHR-promoter screen was used to observe the transcriptional activity of 29 promoters from various physiological pathways including inflammation, lipid and sugar metabolism, cholesterol transport, xenobiotic metabolism, and circadian rhythm.
(§2) The promoters that facilitate transcription of the indicated gene products that were tested using the protocols described herein are listed in the first row of the table. The nuclear hormone receptors and, where applicable, ligands that were assayed for their transcriptional effects on the promoters are listed in the first column of the table. The data represent the luciferase activity of each sample normalized to both the lacZ activity of that sample and to a control, e.g., no NHR or ligand, as customary in the art. As described previously, these normalizations allow the transcriptional activity of each reporter cell to be compared to other samples.
(§3) Tables 7-40 show the transcriptional effects of the hormone receptors, and, where applicable, ligands (orphan receptors are screened without ligand), on each individual promoter. […] The control data of each table are shown in their last rows.

RevErba promoter = assay: NHR-promoter luciferase screen, RevErba (RVRa) promoter; format: cell-based; set-up: key to mRevErba promoter reporter activity / Normalized Luc. act., normalized to control: luciferase activity normalized to lacZ and to control (no NHR/ligand); conditions: for Luc. act., normalized to lacZ / Normalized Luc. act., normalized to control / normalized Luc. act. on a logarithmic scale (column without head, Table 33): RVRa promoter; for Luc. act., normalized to lacZ / Normalized Luc. act., normalized to control: HR component without or with ligand; for normalized Luc. act. on a logarithmic scale (column without head, Table 33): log10 of activity normalized to control; for mRevErba promoter reporter activity: transcription factor +/- ligand, control = 1.00
Procedure: Briefly, there were co-expressed 50 ng of each NHR/NHR homodimer or NHR/RXR heterodimer with 100 ng promoter/luciferase construct and 50 ng of LacZ (as a control for transfection efficiency) in CV-1 cells using Fugene HD (Roche) as a transfection reagent (alternatively or additionally, a CMV-YFP construct can be used as a transfection control). Each of the nuclear hormone receptors that were used in these experiments was cloned into a pcDNA3.1 vector and comprised a C-terminally linked V5H6 tag.
as §2
The control data of each table are shown in their last rows.

hMDR1 promoter = assay: NHR-promoter luciferase screen, hMDR1 promoter; format: cell-based, human; conditions: for Luc. act., normalized to lacZ / Normalized Luc. act., normalized to control: MDR1 promoter, HR/ligand component; for hMDR1 promoter reporter activity: transcription factor +/- ligand, control = 1.00
Procedure: as §1, §2, §3

mPOMC promoter = assay: NHR-promoter luciferase screen, mPOMC promoter; format: cell-based, mouse; conditions: for Results of assays of transcription factor (+/- ligand) with mPOMC: Table 6d, luciferase activity relative to control (control = 1.00); for Luc. act., normalized to lacZ / Normalized Luc. act., normalized to control: mPOMC promoter, HR component with or without ligand; for Normalized Luc. act., normalized to control: relative to control
Procedure: as §1, §2, §3

mLeptin promoter = assay: NHR-promoter luciferase screen, mLeptin promoter; format: cell-based, mouse; conditions: for Luc. act., normalized to lacZ / Normalized Luc. act., normalized to control: Table 7, mLeptin; for Results of assays of transcription factor (+/- ligand) with mLeptin: Table 6d, luciferase activity relative to control (control = 1.00)
Procedure: as §1, §2, §3

Row | Molecule | Luc. act., normalized to lacZ (Bmal1 promoter) | Normalized Luc. act., normalized to control (Bmal1 promoter) | mBmal1 promoter reporter activity (Bmal1 promoter) | Luc. act., normalized to lacZ (RevErba promoter) | Normalized Luc. act., normalized to control (RevErba promoter) | normalized Luc. act. on a logarithmic scale (column without head, Table 33) (RevErba promoter) | mRevErba promoter reporter activity (RevErba promoter) | Luc. act., normalized to lacZ (hMDR1 promoter) | Normalized Luc. act., normalized to control (hMDR1 promoter) | hMDR1 promoter reporter activity (hMDR1 promoter) | Results of assays of transcription factor (+/- ligand) with mPOMC (mPOMC promoter) | Luc. act., normalized to lacZ (mPOMC promoter) | Normalized Luc. act., normalized to control (mPOMC promoter) | Luc. act., normalized to lacZ (mLeptin promoter) | Normalized Luc. act., normalized to control (mLeptin promoter) | Results of assays of transcription factor (+/- ligand) with mLeptin (mLeptin promoter)
1 | ERR1: Estrogen Related Receptor α (NR3B1, ERRa), cDNA driver | 13.6 | 0.9 | 0.87 | 33.3 | 1.2 | 0.08 | 1.19 | 0.4 | 1.2 | 1.20 | 1.00 | 68.9 | 1.0 | 2.6 | 0.9 | 0.88
2 | B1 | 17.4 | 1.1 | 1.11 | 30.9 | 1.1 | 0.04 | 1.10 | 0.2 | 0.8 | 0.78 | 0.88 | 60.8 | 0.9 | 2.4 | 0.8 | 0.81
